Test results published in PubChem BioAssay AID330 (DTP/NCI, 2004).
Values joined by “and” are separate entries in the source; they are usually repeats but may differ in a detail not shown here. Identical values can stand only once. Toxic doses and inconclusive results are not listed. The calls were made as follows: active = survival T/C of 150% or more; inactive = T/C below 125% in these data.

Tested on: P388 leukemia ip, CD2F1 mice, survival T/C
Assay: NCI In Vivo Anticancer Drug Screen. Data for tumor model P388 Leukemia (intraperitoneal) in CD2F1 (CDF1) mice
Details: endpoint: median survival time, higher = longer survival
In short: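 Mice carrying the transplanted tumor received test compound or vehicle. Survival was recorded in each group, and the value is the treated-group measurement divided by that of the vehicle-treated control group.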

[1] = dose: 25.0 mg/kg/injection, schedule: Q01DX009 (ip), vehicle: saline
[2] = dose: 50.0 mg/kg/injection, schedule: Q01DX009 (ip), vehicle: saline
[3] = dose: 100.0 mg/kg/injection, schedule: Q01DX009 (ip), vehicle: saline
[4] = dose: 50.0 mg/kg/injection, schedule: Q01DX005 (ip), vehicle: Klucel (hydroxypropylcellulose) (HPC)
[5] = dose: 100.0 mg/kg/injection, schedule: Q01DX005 (ip), vehicle: Klucel (hydroxypropylcellulose) (HPC)
[6] = dose: 200.0 mg/kg/injection, schedule: Q01DX005 (ip), vehicle: Klucel (hydroxypropylcellulose) (HPC)
[7] = dose: 60.0 mg/kg/injection, schedule: Q01DX005 (ip), vehicle: saline with Tween-80
[8] = dose: 120.0 mg/kg/injection, schedule: Q01DX005 (ip), vehicle: saline with Tween-80
[9] = dose: 240.0 mg/kg/injection, schedule: Q01DX005 (ip), vehicle: saline with Tween-80
[10] = dose: 50.0 mg/kg/injection, schedule: Q01DX005 (ip), vehicle: saline with Tween-80
[11] = dose: 100.0 mg/kg/injection, schedule: Q04DX003 (ip), vehicle: saline with Tween-80
[12] = dose: 200.0 mg/kg/injection, schedule: Q04DX003 (ip), vehicle: saline with Tween-80
[13] = dose: 400.0 mg/kg/injection, schedule: Q04DX003 (ip), vehicle: saline with Tween-80

Measured: T/C

OC1CCOC1 (configuration not stated)
inactive: dose: 6.25 mg/kg/injection, schedule: Q01DX009 (ip), vehicle: saline 95 % of control | dose: 12.5 mg/kg/injection, schedule: Q01DX009 (ip), vehicle: saline 97 % of control | [1] 100 % of control | [2] 101 % of control | [3] 101 % of control | dose: 200.0 mg/kg/injection, schedule: Q01DX009 (ip), vehicle: saline 98 % of control | dose: 400.0 mg/kg/injection, schedule: Q01DX009 (ip), vehicle: saline 94 % of control | dose: 800.0 mg/kg/injection, schedule: Q01DX009 (ip), vehicle: saline 96 % of control

C[C@H]1CCC/C=C/[C@@H]2C[C@H](O)C[C@H]2[C@H](O)/C=C/C(=O)O1
inactive: dose: 100.0 mg/kg/injection, schedule: Q04DX003 (ip), vehicle: Klucel (hydroxypropylcellulose) (HPC) 104 % of control | dose: 200.0 mg/kg/injection, schedule: Q04DX003 (ip), vehicle: Klucel (hydroxypropylcellulose) (HPC) 90 % of control

CCOC(=O)CC1(O)CSc2nc(N)cc(=O)n21 (configuration not stated)
inactive: [4] 94 % of control | [5] 99 % of control | [6] 91 % of control

Cn1c(=O)c2[nH]c(Cc3cccc(O)c3)nc2n(C)c1=O
inactive: dose: 25.0 mg/kg/injection, schedule: Q01DX009 (ip), vehicle: suspension in saline 99 % of control | dose: 50.0 mg/kg/injection, schedule: Q01DX009 (ip), vehicle: suspension in saline 96 % of control | dose: 100.0 mg/kg/injection, schedule: Q01DX009 (ip), vehicle: suspension in saline 92 % of control and 93 % of control | dose: 200.0 mg/kg/injection, schedule: Q01DX009 (ip), vehicle: suspension in saline 104 % of control | dose: 400.0 mg/kg/injection, schedule: Q01DX009 (ip), vehicle: suspension in saline 91 % of control

CC1=NC2=NC(CCCC(=O)N3CCCCC3)=NC3=CC=CC(=N1)N32
inactive: [1] 104 % of control | [2] 101 % of control | [3] 103 % of control

O=C1C=C(NC(=O)C(F)(F)F)C(=O)c2c1[nH]c(=O)[nH]c2=O
inactive: dose: 6.25 mg/kg/injection, schedule: Q01DX005 (ip), vehicle: DMSO 109 % of control | dose: 12.5 mg/kg/injection, schedule: Q01DX005 (ip), vehicle: DMSO 103 % of control | dose: 25.0 mg/kg/injection, schedule: Q01DX005 (ip), vehicle: DMSO 103 % of control | dose: 50.0 mg/kg/injection, schedule: Q01DX005 (ip), vehicle: DMSO 110 % of control | dose: 50.0 mg/kg/injection, schedule: Q01DX005 (ip), vehicle: other 98 % of control | dose: 100.0 mg/kg/injection, schedule: Q01DX005 (ip), vehicle: other 104 % of control | dose: 200.0 mg/kg/injection, schedule: Q01DX005 (ip), vehicle: other 101 % of control

S=C(SCc1cc(Cl)cc2c1OCOC2)N1CCSCC1
inactive: [7] 105 % of control | [8] 92 % of control | [9] 92 % of control

CCCCC1(C(O)CC)Sc2ccccc2N1C (configuration not stated)
inactive: [7] 100 % of control | [8] 101 % of control | [9] 110 % of control

CCN(CC)c1ccc(C(=C2C=CC(=[N+](CC)CC)C=C2)c2ccc(N(CC)CC)cc2)cc1
inactive: [10] 113 % of control and 120 % of control

CC(C)(C)c1cc(C(=O)O)c2soc(=O)c2c1
inactive: dose: 50.0 mg/kg/injection, schedule: Q01DX009 (ip), vehicle: Klucel (hydroxypropylcellulose) (HPC) 106 % of control | dose: 100.0 mg/kg/injection, schedule: Q01DX009 (ip), vehicle: Klucel (hydroxypropylcellulose) (HPC) 109 % of control | dose: 200.0 mg/kg/injection, schedule: Q01DX009 (ip), vehicle: Klucel (hydroxypropylcellulose) (HPC) 111 % of control

C=CCn1nc(-c2ccccc2)c(-c2ccccc2)n1
inactive: [11] 98 % of control | [12] 95 % of control | [13] 89 % of control

O=C(c1ccc(Cl)cc1)n1c(Cl)c(/C=N\Nc2ccc([N+](=O)[O-])cc2[N+](=O)[O-])c2ccccc21
inactive: dose: 12.5 mg/kg/injection, schedule: Q01DX001 (ip), vehicle: Klucel (hydroxypropylcellulose) (HPC) 92 % of control | dose: 25.0 mg/kg/injection, schedule: Q01DX001 (ip), vehicle: Klucel (hydroxypropylcellulose) (HPC) 96 % of control | dose: 50.0 mg/kg/injection, schedule: Q01DX001 (ip), vehicle: Klucel (hydroxypropylcellulose) (HPC) 88 % of control

Cn1c(=O)c2c(c3cc(O)ccc31)OC(C(C)(C)O)C2 (configuration not stated)
inactive: [4] 95 % of control | [5] 96 % of control | [6] 86 % of control

c1ccc2c(NCCCCCCCCCCNc3c4ccccc4nc4ccccc34)c3ccccc3nc2c1
inactive: dose: 0.62 mg/kg/injection, schedule: Q## X009 (ip), vehicle: lactic acid 104 % of control | dose: 1.25 mg/kg/injection, schedule: Q## X009 (ip), vehicle: lactic acid 118 % of control | dose: 5.0 mg/kg/injection, schedule: Q## X009 (ip), vehicle: lactic acid 120 % of control | dose: 10.0 mg/kg/injection, schedule: Q## X009 (ip), vehicle: lactic acid 90 % of control

C#CC1CC2C3CCC4=CC(=O)CCC4(C)C3CCC2(C)C1N(C)C (configuration not stated)
inactive: dose: 6.25 mg/kg/injection, schedule: Q01DX005 (ip), vehicle: Klucel (hydroxypropylcellulose) (HPC) 99 % of control | dose: 12.5 mg/kg/injection, schedule: Q01DX005 (ip), vehicle: Klucel (hydroxypropylcellulose) (HPC) 102 % of control | dose: 25.0 mg/kg/injection, schedule: Q01DX005 (ip), vehicle: Klucel (hydroxypropylcellulose) (HPC) 96 % of control

O=C1CCCC/C1=C\N(c1ccccc1)c1ccccc1
inactive: dose: 50.0 mg/kg/injection, schedule: Q01DX009 (ip), vehicle: saline with Tween-80 106 % of control | dose: 100.0 mg/kg/injection, schedule: Q01DX009 (ip), vehicle: saline with Tween-80 98 % of control | dose: 200.0 mg/kg/injection, schedule: Q01DX009 (ip), vehicle: saline with Tween-80 95 % of control

CC1(C)COC1(c1ccccc1)c1cccnc1 (configuration not stated)
inactive: [7] 97 % of control | [8] 102 % of control | [9] 93 % of control

CC(C)(C)c1cc2c3c(c1)C(C(F)(F)F)(C(F)(F)F)OS3(O)OC2(C(F)(F)F)C(F)(F)F
inactive: dose: 12.5 mg/kg/injection, schedule: Q01DX005 (ip), vehicle: suspension in saline 103 % of control | dose: 25.0 mg/kg/injection, schedule: Q01DX005 (ip), vehicle: suspension in saline 108 % of control

O=C1OC2=C(CCCCC2)C(N2CCCCC2)C12SCCCS2 (configuration not stated)
inactive: dose: 66.0 mg/kg/injection, schedule: Q04DX003 (ip), vehicle: saline with Tween-80 100 % of control and 96 % of control | [11] 98 % of control and 91 % of control | dose: 150.0 mg/kg/injection, schedule: Q04DX003 (ip), vehicle: saline with Tween-80 110 % of control and 93 % of control | [12] 104 % of control | [13] 93 % of control

CN(C)c1ccc2nc3ccc(=[N+](C)C)c([N+](=O)[O-])c-3sc2c1
inactive: dose: 15.0 mg/kg/injection, schedule: Q01DX005 (ip), vehicle: saline 105 % of control | dose: 30.0 mg/kg/injection, schedule: Q01DX005 (ip), vehicle: saline 100 % of control | [10] 116 % of control | dose: 100.0 mg/kg/injection, schedule: Q01DX005 (ip), vehicle: saline with Tween-80 100 % of control

N#C/C(=N\NC(=O)c1cccc(C(=O)N/N=C(\C#N)c2ccccc2Cl)n1)c1ccccc1Cl
inactive: dose: 1.5 mg/kg/injection, schedule: Q01DX005 (ip), vehicle: saline with Tween-80 92 % of control | dose: 3.0 mg/kg/injection, schedule: Q01DX005 (ip), vehicle: saline with Tween-80 94 % of control | dose: 6.0 mg/kg/injection, schedule: Q01DX005 (ip), vehicle: saline with Tween-80 94 % of control | dose: 6.25 mg/kg/injection, schedule: Q01DX005 (ip), vehicle: saline with Tween-80 91 % of control | dose: 200.0 mg/kg/injection, schedule: Q01DX005 (ip), vehicle: saline with Tween-80 100 % of control

CC(=O)C(O)CC(=O)C(O)CC(=O)C(O)N1C(=O)C=CC1=O (configuration not stated)
inactive: dose: 6.25 mg/kg/injection, schedule: Q01DX009 (ip), vehicle: Klucel (hydroxypropylcellulose) (HPC) 93 % of control | dose: 12.5 mg/kg/injection, schedule: Q01DX009 (ip), vehicle: Klucel (hydroxypropylcellulose) (HPC) 95 % of control | dose: 25.0 mg/kg/injection, schedule: Q01DX009 (ip), vehicle: Klucel (hydroxypropylcellulose) (HPC) 97 % of control

O=C1c2ccccc2C(=O)N1OCc1ccccc1[N+](=O)[O-]
inactive: [4] 102 % of control | [5] 101 % of control | [6] 90 % of control
